Reference: patent US20160317430A1, “COSMETIC USE OF AN EXTRACT OF GYMNEMA SYLVESTRE” (LABORATOIRES CLARINS, priority 2013, published 2016)

Tested on: cytochrome C oxidase, complex IV of the respiratory chain
Test: Cytochrome C oxidase activity in human keratinocytes in culture, with or without H2O2 oxidative stress
Assay type: cell-based
Conditions: H2O2 alone (positive control), 24 h
Protocol: The keratinocyte cultures were established using skin from human foreskins collected at circumcisions and were amplified in KGM2 medium (Keratinocyte Growth Medium, KGN2, clonetics) supplemented with insulin, EGF and pituitary extract. The tests were conducted on keratinocytes at the 3rd passage. The cells were inoculated in multi-well dishes at a rate of 1×10^6 cells. After 24 hours of incubation at 37° C. (5% CO2), the cells in the exponential growth phase were treated with Gymnema sylvestre extract at the concentrations of 0.125% and 0.25% alone or in the presence of H2O2.
After 24 hours of treatment, the cells were sampled and then washed and resuspended in cold PBS. The evaluation of the cytochrome C oxidase activity was then carried out using the analysis kit (Cytochrome C Oxidase Assay Kit—Sigma) according to the protocol specified.

OO [H2O2, hydrogen peroxide]
% (cytochrome C oxidase activity vs negative control): −34% | ATP mean (Table II, cytochrome C oxidase activity test): 0.87 nmol/10^7 cells
